ChEMBL document CHEMBL1201862, “PubChem BioAssay data set” (2004)
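How tested: cells in 96-well plates exposed to compound for 48 hours at five concentrations. The concentration for 50% growth inhibition is given as GI50.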 The source made the active and inactive calls. Cut-off read from the data, not from the text of the source: active = GI50 up to about 1.1 µM and inactive = higher. Where a SMILES comes first, the peptide text is derived from it. The star is where a group is joined. Boc = CC(C)(C)OC(=O)*

How the values were obtained:
Test in all cases: inhibition of tumour cell growth, NCI panel, 48 h
A498 = test system: A498
CCRF-CEM = test system: CCRF-CEM
MDA-MB-435 = test system: MDA-MB-435
HT-29 = test system: HT-29
RPMI-8226 = test system: RPMI-8226
SF-295 = test system: SF-295
UACC-257 = test system: UACC-257
SK-MEL-28 = test system: SK-MEL-28
Malme-3M = test system: Malme-3M
EKVX = test system: EKVX
NCI-H522 = test system: NCI-H522
IGROV-1 = test system: IGROV-1
MDA-MB-231 = test system: MDA-MB-231
U-251 = test system: U-251
HOP-92 = test system: HOP-92
SNB-75 = test system: SNB-75
RXF 393 = test system: RXF 393

Measured: GI50

COc1cc2c(c(OC)c1)C(C)=NC(C)C2 (stereo unspecified)
inactive: A498 > 100 µM | CCRF-CEM > 100 µM | MDA-MB-435 > 100 µM | HT-29 > 100 µM | RPMI-8226 > 100 µM | SF-295 > 100 µM | UACC-257 > 100 µM | SK-MEL-28 > 100 µM | Malme-3M > 100 µM | EKVX > 100 µM | NCI-H522 76.7 µM | IGROV-1 > 100 µM | MDA-MB-231 > 100 µM

CC(C)=NN/C(=N\c1ccc(Cl)cc1)NS(=O)(=O)c1cc2ccccc2s1
inactive: CCRF-CEM 40.4 µM | MDA-MB-435 36.7 µM | U-251 > 100 µM | HT-29 63.1 µM | HOP-92 38.9 µM | RPMI-8226 29 µM | SF-295 57.5 µM | UACC-257 55.3 µM | SK-MEL-28 > 100 µM | Malme-3M 89.9 µM | EKVX 12 µM | NCI-H522 38.5 µM | IGROV-1 34.2 µM | MDA-MB-231 > 100 µM

Cc1ccc(/C=C2\CCCc3ccccc3C2=O)cc1
inactive: SNB-75 21.2 µM | CCRF-CEM 15.1 µM | MDA-MB-435 2.6 µM | U-251 17.4 µM | HT-29 3.18 µM | HOP-92 18.5 µM | RPMI-8226 16.3 µM | SF-295 3.45 µM | UACC-257 21.9 µM | SK-MEL-28 22.4 µM | Malme-3M 8.95 µM | EKVX 12 µM | NCI-H522 6.25 µM | IGROV-1 7.14 µM | MDA-MB-231 9.62 µM

O=C1NC(Nc2cccc(Cl)c2)=N/C1=C\c1ccc(Cl)c(Cl)c1
inactive: A498 4.37 µM | SNB-75 13.3 µM | CCRF-CEM 3.45 µM | MDA-MB-435 4.85 µM | U-251 4.02 µM | HT-29 6.73 µM | HOP-92 3.48 µM | RPMI-8226 3.99 µM | SF-295 4.05 µM | UACC-257 8.07 µM | SK-MEL-28 12.7 µM | Malme-3M 14.1 µM | EKVX 3.67 µM | NCI-H522 2.52 µM | RXF 393 3.21 µM | IGROV-1 5.66 µM

O=C(O)C1Cc2ccccc2OC1=O (stereo unspecified)
inactive: MDA-MB-435 > 100 µM | U-251 > 100 µM | HT-29 > 100 µM | RPMI-8226 > 100 µM | SF-295 > 100 µM | UACC-257 > 100 µM | SK-MEL-28 > 100 µM | Malme-3M > 100 µM | EKVX > 100 µM | NCI-H522 > 100 µM | RXF 393 > 100 µM | IGROV-1 > 100 µM | MDA-MB-231 > 100 µM

COc1ccc(N2C(=O)CC(C3CC(C(C)(C)C)CCC3=O)C2=O)cc1 (stereo unspecified)
inactive: SNB-75 > 100 µM | CCRF-CEM > 100 µM | MDA-MB-435 > 100 µM | U-251 > 100 µM | HT-29 > 100 µM | RPMI-8226 > 100 µM | UACC-257 > 100 µM | SK-MEL-28 > 100 µM | EKVX > 100 µM | NCI-H522 10.7 µM | RXF 393 > 100 µM | IGROV-1 > 100 µM | MDA-MB-231 > 100 µM

Nc1cc(N2CCOCC2)nc(=O)n1-c1ccc(Cl)cc1
inactive: A498 > 100 µM | SNB-75 > 100 µM | CCRF-CEM > 100 µM | MDA-MB-435 > 100 µM | U-251 > 100 µM | HT-29 > 100 µM | HOP-92 > 100 µM | RPMI-8226 > 100 µM | SF-295 > 100 µM | UACC-257 > 100 µM | SK-MEL-28 > 100 µM | EKVX > 100 µM | IGROV-1 > 100 µM

Oc1ccc(CCNCc2cc3c(cc2Br)OCO3)cc1
inactive: A498 50 µM | SNB-75 18.4 µM | CCRF-CEM 73.8 µM | U-251 77.8 µM | HT-29 52.8 µM | HOP-92 > 100 µM | RPMI-8226 27.9 µM | SF-295 65.2 µM | UACC-257 50.2 µM | SK-MEL-28 37.2 µM | Malme-3M 62.8 µM | EKVX > 100 µM | NCI-H522 39.4 µM | RXF 393 69.5 µM | IGROV-1 > 100 µM | MDA-MB-231 55.3 µM

COc1ccc(Cn2c(=O)c(OS(=O)(=O)C(F)(F)F)c(C)c3cc4ccccc4cc32)cc1
inactive: SNB-75 > 100 µM | CCRF-CEM > 100 µM | MDA-MB-435 > 100 µM | U-251 > 100 µM | HT-29 > 100 µM | SF-295 > 100 µM | UACC-257 36 µM | SK-MEL-28 > 100 µM | Malme-3M 86.1 µM | EKVX > 100 µM | NCI-H522 > 100 µM | RXF 393 > 100 µM | IGROV-1 > 100 µM | MDA-MB-231 > 100 µM

O=C1CC(C(OCc2ccccc2)C(OCc2ccccc2)C(OCc2ccccc2)C(COCc2ccccc2)OCc2ccccc2)CC(=O)N1 (stereo unspecified)
inactive: A498 > 100 µM | SNB-75 > 100 µM | CCRF-CEM > 100 µM | MDA-MB-435 > 100 µM | U-251 79.8 µM | HT-29 > 100 µM | HOP-92 18 µM | RPMI-8226 > 100 µM | SF-295 > 100 µM | UACC-257 > 100 µM | SK-MEL-28 > 100 µM | Malme-3M > 100 µM | EKVX > 100 µM | RXF 393 6.52 µM | IGROV-1 > 100 µM

CNC(=O)CNC(=O)C(NC(=O)CNC(=O)C1CCCN1C(=O)C(C)NC(=O)C(NC(C)=O)C(C)C)C(C)C (stereo unspecified) (Ac-VAPGVG-NHMe; configuration not given here)
inactive: A498 > 100 µM | CCRF-CEM > 100 µM | MDA-MB-435 > 100 µM | U-251 > 100 µM | HT-29 > 100 µM | HOP-92 > 100 µM | RPMI-8226 > 100 µM | SF-295 > 100 µM | UACC-257 > 100 µM | SK-MEL-28 > 100 µM | Malme-3M > 100 µM | EKVX > 100 µM | NCI-H522 > 100 µM | IGROV-1 > 100 µM | MDA-MB-231 > 100 µM

CNC(=O)CNC(=O)C(NC(=O)CNC(=O)C1CCCN1C(=O)C(C)NC(=O)C(NC(=O)OC(C)(C)C)C(C)C)C(C)C (stereo unspecified) (Boc-VAPGVG-NHMe; configuration not given here)
inactive: A498 > 100 µM | SNB-75 > 100 µM | CCRF-CEM > 100 µM | MDA-MB-435 > 100 µM | U-251 > 100 µM | HT-29 > 100 µM | HOP-92 > 100 µM | RPMI-8226 > 100 µM | SF-295 > 100 µM | UACC-257 > 100 µM | SK-MEL-28 > 100 µM | Malme-3M > 100 µM | EKVX > 100 µM | NCI-H522 > 100 µM | IGROV-1 > 100 µM | MDA-MB-231 > 100 µM

O=C1Oc2ccccc2C(=O)/C1=C/N1C(=O)CNC1=S
inactive: CCRF-CEM 80.2 µM | MDA-MB-435 > 100 µM | U-251 > 100 µM | HT-29 > 100 µM | RPMI-8226 > 100 µM | SF-295 > 100 µM | UACC-257 > 100 µM | SK-MEL-28 > 100 µM | EKVX > 100 µM | NCI-H522 > 100 µM | RXF 393 26.9 µM | IGROV-1 > 100 µM | MDA-MB-231 > 100 µM
